Patent US20250129078A1, “ERBB2 INHIBITORS” (Cogent Biosciences, Inc., priority 2023, published 2025)

Legend:
[1] = Blood brain barrier penetration assay in CD-1 mice (short oral absorption model, Kpuu brain); assay type: in vivo; settings: mouse, brain and plasma, male CD-1 mice, 1 h post-dose, Kpuu brain = conc (brain)/conc (plasma) x (fu brain/fu plasma)
Description: In vitro plasma and brain binding assays were carried out using the equilibrium dialysis method. EDTA-anticoagulated plasma and diluted brain homogenate (1:3 with DPBS pH 7.4) were spiked with 2 μM test compound and dialyzed against an equal volume of 100 μL 100 mM sodium phosphate buffer (pH 7.4) at 37° C. for 4 h in a slowly rotated plate. At the end of the dialysis 50 μL aliquots from the buffer side and matrix side of the dialysis device were taken into new 96-well plates. An equal volume of opposite blank matrix (buffer or matrix) in each sample was added to reach a final volume of 100 μL. All samples were processed by protein precipitation for LC/MS/MS analysis. Unbound fraction (fu) of test compound was calculated by the ratio of buffer side response to the brain homogenate/plasma side response, and unbound fraction (fu,pl and fu,br) of test compound in non-diluted plasma and brain tissue were calculated from measured fu in homogenate and plasma with the following equation: fu,pl or fu,br=1/D/((1/(F/T)-1)+1/D). F is the free compound concentration as determined by the calculated concentration on the buffer side of the membrane and T is the total compound concentration as determined by the calculated concentration on the matrix side of the membrane. D is the dilution factor (D equals 1 for plasma, and 4 for brain).
A short oral absorption model is an in-vivo screening model to identify brain penetration of a compound. Three male CD-1 mice were orally dosed with an appropriate vehicle. At the 1 h timepoint post-dose, blood samples were collected via cardiac puncture, placed into EDTA anti-coagulated tubes, and spiked with 1% 1 mM quinidine (aq). The samples were placed on wet ice until centrifugation at 4000×g for 10 min. Brain tissue was rinsed with saline and the liquid was drained. The brains were weighed and transferred to tubes for homogenization. Each tube contained 1 g tissue, 9 mL buffer (1:2 v/v MeOH:15 mM PBS), and a spike of 1% 1 mM quinidine (aq). All samples were stored at −80° C. prior to LC/MS/MS analysis. Standards were prepared by spiking blank plasma and brain homogenate. Aliquots (10 μL) of sample, calibration standard, quality control, dilution quality control, single blank, and double blank were added to the 96-well plate respectively. Homogenized brain tissue along with plasma samples were precipitated by adding 190 μL cold MeCN containing internal standard (the double blank sample was quenched with 190 L MeCN). The mixture was vortex-mixed for 5 min at 1000 rpm and centrifuged for 10 min at 3220×g, 4° C. […] The free fraction of test compound in biological matrix was determined by using in vitro plasma and brain tissue free fraction. Kpuu brain was calculated by the equation: Kpuu brain=cone (brain)/conc (plasma)×(fu brain/fu plasma).

EGFR WT = EGFR WT (Homo sapiens (Human), UniProt P00533); assay: ErbB enzyme assay (CisBio HTRF-KinEASE-TK), EGFR WT; assay type: biochemical; settings: ATP at Km (25 μM), 1 h incubation
Sequence of EGFR WT (P00533 25-1210): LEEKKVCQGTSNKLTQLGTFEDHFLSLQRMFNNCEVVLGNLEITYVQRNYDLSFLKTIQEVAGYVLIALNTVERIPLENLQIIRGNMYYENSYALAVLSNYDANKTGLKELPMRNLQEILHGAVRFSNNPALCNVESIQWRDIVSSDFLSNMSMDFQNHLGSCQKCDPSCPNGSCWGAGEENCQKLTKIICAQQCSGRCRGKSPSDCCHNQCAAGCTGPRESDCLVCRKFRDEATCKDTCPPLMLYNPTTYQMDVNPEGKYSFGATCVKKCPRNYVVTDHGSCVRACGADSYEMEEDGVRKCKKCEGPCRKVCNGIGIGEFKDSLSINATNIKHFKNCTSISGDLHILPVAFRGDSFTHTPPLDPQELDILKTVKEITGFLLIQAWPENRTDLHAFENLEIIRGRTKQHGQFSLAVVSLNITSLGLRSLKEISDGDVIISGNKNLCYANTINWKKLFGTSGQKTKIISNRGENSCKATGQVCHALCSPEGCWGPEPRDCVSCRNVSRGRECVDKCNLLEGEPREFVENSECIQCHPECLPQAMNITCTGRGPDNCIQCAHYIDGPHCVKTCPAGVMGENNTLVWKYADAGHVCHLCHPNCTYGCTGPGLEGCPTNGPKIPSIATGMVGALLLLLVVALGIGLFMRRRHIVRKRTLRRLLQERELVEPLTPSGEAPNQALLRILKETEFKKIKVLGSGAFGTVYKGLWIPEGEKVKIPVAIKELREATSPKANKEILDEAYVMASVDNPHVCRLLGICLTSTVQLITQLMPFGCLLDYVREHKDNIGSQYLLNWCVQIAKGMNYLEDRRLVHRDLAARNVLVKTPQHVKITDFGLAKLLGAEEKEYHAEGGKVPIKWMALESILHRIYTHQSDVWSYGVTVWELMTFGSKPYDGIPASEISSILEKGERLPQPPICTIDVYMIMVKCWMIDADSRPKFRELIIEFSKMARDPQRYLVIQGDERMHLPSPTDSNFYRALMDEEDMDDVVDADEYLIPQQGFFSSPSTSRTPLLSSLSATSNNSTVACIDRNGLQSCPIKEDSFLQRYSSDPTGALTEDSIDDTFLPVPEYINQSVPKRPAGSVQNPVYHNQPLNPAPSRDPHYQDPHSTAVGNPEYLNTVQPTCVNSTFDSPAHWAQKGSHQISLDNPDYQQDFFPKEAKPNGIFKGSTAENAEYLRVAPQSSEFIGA
Outline: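 Tyrosine kinase HTRF, 1 h RT reaction → quench (Sa-XL665/TK-Ab-Cryptate) → 1 h RT → 655/620 ratio.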

ErbB2 V777L = ErbB2 V777L (Homo sapiens (Human), UniProt P04626, V777L); assay: ErbB enzyme assay (CisBio HTRF-KinEASE-TK), ErbB2 V777L; assay type: biochemical
Sequence of ErbB2 V777L (P04626 23-1255 V777L): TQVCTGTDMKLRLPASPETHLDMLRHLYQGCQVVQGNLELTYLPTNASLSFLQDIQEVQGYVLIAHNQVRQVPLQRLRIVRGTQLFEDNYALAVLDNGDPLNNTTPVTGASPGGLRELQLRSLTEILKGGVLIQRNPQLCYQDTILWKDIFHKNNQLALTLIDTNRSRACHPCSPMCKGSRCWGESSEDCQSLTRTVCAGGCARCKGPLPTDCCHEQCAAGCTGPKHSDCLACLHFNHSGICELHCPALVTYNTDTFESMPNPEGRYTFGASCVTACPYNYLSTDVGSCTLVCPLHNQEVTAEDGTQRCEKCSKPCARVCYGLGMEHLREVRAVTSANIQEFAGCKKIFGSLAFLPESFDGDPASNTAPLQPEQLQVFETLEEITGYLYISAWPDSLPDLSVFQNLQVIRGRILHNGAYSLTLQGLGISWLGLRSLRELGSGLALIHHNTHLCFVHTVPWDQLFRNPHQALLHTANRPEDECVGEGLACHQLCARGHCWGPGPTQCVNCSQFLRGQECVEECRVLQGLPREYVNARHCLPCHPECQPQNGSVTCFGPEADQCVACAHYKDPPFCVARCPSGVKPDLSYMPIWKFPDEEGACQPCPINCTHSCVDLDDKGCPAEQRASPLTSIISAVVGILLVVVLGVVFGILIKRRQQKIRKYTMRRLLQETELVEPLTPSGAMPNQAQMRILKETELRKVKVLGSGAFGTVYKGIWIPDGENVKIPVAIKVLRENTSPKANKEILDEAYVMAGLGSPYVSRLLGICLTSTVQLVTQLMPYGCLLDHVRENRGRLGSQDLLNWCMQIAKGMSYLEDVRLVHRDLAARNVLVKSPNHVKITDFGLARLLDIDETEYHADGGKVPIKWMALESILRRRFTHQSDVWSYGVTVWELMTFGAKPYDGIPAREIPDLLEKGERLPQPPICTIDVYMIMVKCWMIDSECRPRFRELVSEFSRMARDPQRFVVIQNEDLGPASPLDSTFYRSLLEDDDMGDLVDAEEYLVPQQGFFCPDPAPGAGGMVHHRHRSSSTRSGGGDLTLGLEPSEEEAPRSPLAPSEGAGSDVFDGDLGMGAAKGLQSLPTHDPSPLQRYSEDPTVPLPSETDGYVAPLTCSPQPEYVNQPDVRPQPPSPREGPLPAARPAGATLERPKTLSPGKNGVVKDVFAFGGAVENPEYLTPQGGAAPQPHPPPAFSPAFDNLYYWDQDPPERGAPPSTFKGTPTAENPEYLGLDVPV
Outline: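 HTRF KinEASE-TK tyrosine-kinase read-out of substrate phosphorylation after a final 1 h at ambient temperature, from the 655/620 nm emission ratio.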

Row | SMILES | Kp uu at 1 h [1] | IC50 (EGFR WT) [nM] | IC50 (ErbB2 V777L) [nM]
1 | C=CC(=O)N1CCN(c2ncc3ncnc(Nc4ccc(Oc5ccc6c(c5)ncn6C)c(C)c4)c3n2)CC1 [Analog of compound 5, reference compound] | 0.04 | – | –
2 | C=CC(=O)N1CCN(c2ncc3ncnc(Nc4ccc(Oc5ccc6c(c5)nnn6C)c(C)c4)c3n2)CC1 [Compound 5, 1-(4-(8-((3-methyl-4-((1-methyl-1H-benzo[d][1,2,3]triazol-5-yl)oxy)phenyl)amino)pyrimido[5,4-d]pyrimidin-2-yl)piperazin-1-yl)prop-2-en-1-one] | 0.22 | 100 to 500 | –
3 | C=CC(=O)N1CCN(c2ncc3ncnc(Nc4ccc(Oc5cc(F)c6c(c5)ncn6C)c(C)c4)c3n2)CC1 [Compound 64, 1-(4-(8-((4-((7-fluoro-1-methyl-1H-benzo[d]imidazol-5-yl)oxy)-3-methylphenyl)amino)pyrimido[5,4-d]pyrimidin-2-yl)piperazin-1-yl)prop-2-en-1-one] | 0.12 | < 50 | < 50
4 | C=CC(=O)N1CCN(c2ncc3ncnc(Nc4ccc(Oc5cnc6c(c5)ncn6C)c(C)c4)c3n2)CC1 [Compound 235, 1-(4-(8-((3-methyl-4-((3-methyl-3H-imidazo[4,5-b]pyridin-6-yl)oxy)phenyl)amino)pyrimido[5,4-d]pyrimidin-2-yl)piperazin-1-yl)prop-2-en-1-one] | 0.04 | 100 to 500 | –
